This assay has as its system HIV-1 (NL4-3 strain). Nature of the assay: Assay for inhibition of HIV replication (MT4-gag-GFP reporter cell line, kinetic assay). The format is cell-based. Here is the method: This assay is a kinetic assay that employs a reporter cell line (MT4-gag-GFP) to quantify the number of new cells infected in each round of replication.
MT4-GFP cells (250,000 cells/ml) were bulk-infected with HIV-1 (NL4-3 strain) at low multiplicity of infection (MOI) in RPMI+10% FBS for 24 hours. Cells were then washed once in RPMI+10% FBS and resuspended in RPMI+0% or 10% or 100% normal human serum (NHS). Test compounds were serial-diluted in DMSO on ECHO. The infected MT4-GFP cells were added to a 384-well poly-D-lysine coated black plate with clear bottom in which the diluted test compounds were placed. The cells were seeded at 8,000 cells per well and the final DMSO concentration was 0.4%. The infected cells (Green GFP cells) were quantified at both 24 and 48 hours post incubation using Acumen eX3. Viral reproductive ratio (R0) was determined using the number of infected cells at 48 hours divided by the number of infected cells at 24 hours. Percent viral growth inhibition was calculated by [1−(R−Rtripledrug)/(RDMSO−Rtripledrug)]*100. Compound potency IP or IC50 was determined by a 4-parameter dose response curve analysis.

The mark [1] stands for this setting: Human immunodeficiency virus 1, NL43, Table A, infected MT4-GFP cells, RPMI + 10% normal human serum, read-out: Wild Type Cell Assay IP (10% NHS).
Where [2] appears, read: Human immunodeficiency virus 1, NL43, Table A, infected MT4-GFP cells, RPMI + 0% normal human serum, IP from 4-parameter dose response curve, read-out: Wild Type Cell Assay IP (0% NHS).
The mark [3] stands for this setting: Table A, infected MT4-GFP cells, RPMI + 10% normal human serum, read-out: Wild Type Cell Assay IP (10% NHS).
Setting [4] is: Table B (selected enantiomeric compounds), 0% normal human serum, read-out: Wild Type Cell Assay IP (0% NHS).
Where [5] appears, read: Table B (selected enantiomeric compounds), 100% normal human serum, read-out: Wild Type Cell Assay IP (100% NHS).
[6] abbreviates: Human immunodeficiency virus 1, NL43, Table B (selected enantiomeric compounds), 0% normal human serum, read-out: Wild Type Cell Assay IP (0% NHS).

These results are taken from patent US9951079B2, “Fused tricyclic heterocyclic compounds as HIV integrase inhibitors” (MERCK SHARP & DOHME CORP., priority 2013, dated 2018).

Molecules are shown by their SMILES. Like-named read-outs stand apart in the source and are kept apart here.

As for `O=C1N[C@@H]2COC[C@H]2n2cc(-c3nnc(Cc4ccc(F)cc4F)s3)c(=O)c(O)c21` (relative stereo) [Compound 2, trans-8-(5-(2,4-difluorobenzyl)-1,3,4-thiadiazol-2-yl)-6-hydroxy-3a,4-dihydro-1H-furo[3,4-e]pyrido[1,2-a]pyrazine-5,7(3H,10aH)-dione], the IC50 under setting [1] is 385 nM.
Turning to `CCCN1C(=O)c2c(O)c(=O)c(-c3nnc(Cc4ccc(F)cc4)s3)cn2C2COC[C@@H]21` (mixture of isomers) [Compound 9], the IC50 reads like this: under setting [2], 10 nM; under setting [1], 32 nM.
For the compound `CCN1C(=O)c2c(O)c(=O)c(-c3nnc(Cc4ccc(F)cc4F)s3)cn2[C@@H]2COC[C@H]21` (relative stereo) [Compound 3, trans-8-(5-(2,4-difluorobenzyl)-1,3,4-thiadiazol-2-yl)-4-ethyl-6-hydroxy-3a,4-dihydro-1H-furo[3,4-e]pyrido[1,2-a]pyrazine-5,7(3H,10aH)-dione], the IC50 under setting [1] came to 58 nM.
For `CCC(c1nnc(-c2cn3c(c(O)c2=O)C(=O)N(CC)[C@H]2COCC23)s1)c1ccc(F)cc1F` (mixture of isomers) [Compound 6], the IC50 runs as follows: under setting [2], 31 nM; under setting [1], 67 nM.
In the same order, the values of `CC(C)N1C(=O)c2c(O)c(=O)c(C(=O)NCc3ccc(F)cc3F)cn2C2COC[C@@H]21` (mixture of isomers) [Compound 12] are 3 nM and 62 nM.
Consider `CCN1C(=O)c2c(O)c(=O)c(C(=O)NCc3ccc(F)cc3F)cn2C2COC[C@@H]21` (single isomer, unassigned) [Compound 11, cis-N-(2,4-difluorobenzyl)-4-ethyl-6-hydroxy-5,7-dioxo-3,3a,4,5,7,10a-hexahydro-1H-furo[3,4-e]pyrido[1,2-a]pyrazine-8-carboxamide], for which the IC50 reads like this: (Table A, infected MT4-GFP cells, RPMI + 0% normal human serum, IP from 4-parameter dose response curve, read-out: Wild Type Cell Assay IP (0% NHS)) 6 nM; under setting [3], 148 nM; under setting [4], 38 nM; under setting [5], 2800 nM.
Turning to `CCN1C(=O)c2c(O)c(=O)c(-c3cn(Cc4ccc(F)cc4F)nn3)cn2[C@@H]2COC[C@@H]21` (single isomer, unassigned) [Compound 15, cis-8-(1-(2,4-Difluorobenzyl)-1H-1,2,3-triazol-4-yl)-4-ethyl-6-hydroxy-3a,4-dihydro-1H-furo[3,4-e]pyrido[1,2-a]pyrazine-5,7(3H,10aH)-dione], the IC50 under setting [2] is 80 nM.
Turning to `COCCN1C(=O)c2c(O)c(=O)c(-c3nnc(Cc4ccc(F)cc4F)s3)cn2C2COC[C@@H]21` (mixture of isomers) [Compound 8], the IC50 is 6 nM under setting [2] and 13 nM under setting [1].
Take `CCN1C(=O)c2c(O)c(=O)c(-c3nnc(Cc4ccc(F)cc4F)s3)cn2C2COC[C@@H]21` (single isomer, unassigned) [Compound 4, cis-8-(5-(2,4-difluorobenzyl)-1,3,4-thiadiazol-2-yl)-4-ethyl-6-hydroxy-3a,4-dihydro-1H-furo[3,4-e]pyrido[1,2-a]pyrazine-5,7(3H,10aH)-dione]: the IC50 by setting is: under setting [6], 8 nM; under setting [3], 17 nM; under setting [5], 190 nM.
Consider `CCN1C(=O)c2c(O)c(=O)c(C(=O)NCc3ccc(F)cc3F)cn2C2COC[C@H]21` (stereo partly shown) [Compound 13], for which the IC50 under setting [1] was 21 nM.
In the case of `CCN1C(=O)c2c(O)c(=O)c(-c3nnc(Cc4ccc(F)cc4)s3)cn2C2COC[C@@H]21` (mixture of isomers) [Compound 7], the IC50 reads like this: under setting [2], 36 nM; under setting [1], 74 nM.
Taken in the same sequence, the figures for `CCN1C(=O)c2c(O)c(=O)c(-c3cnn(Cc4ccc(F)cc4F)c3)cn2[C@@H]2COC[C@@H]21` (relative stereo) [Compound 14, cis-8-(1-(2,4-difluorobenzyl)-1H-pyrazol-4-yl)-4-ethyl-6-hydroxy-3a,4-dihydro-1H-furo[3,4-e]pyrido[1,2-a]pyrazine-5,7(3H,10aH)-dione] were 51 nM and 252 nM.
As for `CCN1C(=O)c2c(O)c(=O)c(-c3cn(Cc4ccc(F)cc4F)nn3)cn2C2COC[C@@H]21` (single isomer, unassigned) [Compound 16], the IC50 is, setting by setting: under setting [2], 38 nM; under setting [6], 38 nM; (Human immunodeficiency virus 1, NL43, Table B (selected enantiomeric compounds), 100% normal human serum, read-out: Wild Type Cell Assay IP (100% NHS)) 2700 nM.
Turning to `CCN1C(=O)c2c(O)c(=O)c(-c3nnc(Cc4ccc(F)cc4F)s3)cn2C2COC[C@@H]21` (single isomer, unassigned) [Compound 5, cis-8-(5-(2,4-difluorobenzyl)-1,3,4-thiadiazol-2-yl)-4-ethyl-6-hydroxy-3a,4-dihydro-1H-furo[3,4-e]pyrido[1,2-a]pyrazine-5,7(3H,10aH)-dione], the IC50 under setting [2] came out at 9 nM, the IC50 under setting [3] is 561 nM and the IC50 under setting [5] was determined as 5700 nM.
Consider `CCN1C(=O)c2c(O)c(=O)c(C(=O)NCc3ccc(F)cc3F)cn2C2COC[C@@H]21` (single isomer, unassigned) [Compound 10, cis-N-(2,4-difluorobenzyl)-4-ethyl-6-hydroxy-5,7-dioxo-3,3a,4,5,7,10a-hexahydro-1H-furo[3,4-e]pyrido[1,2-a]pyrazine-8-carboxamide], for which the IC50 by setting is: under setting [2], 4 nM; under setting [3], 8 nM; under setting [4], 80 nM; under setting [5], 71 nM.
On to `O=C1N[C@H]2COCC2n2cc(-c3nnc(Cc4ccc(F)cc4F)s3)c(=O)c(O)c21` (stereo in doubt) [Compound 1, cis-8-(5-(2,4-difluorobenzyl)-1,3,4-thiadiazol-2-yl)-6-hydroxy-3a,4-dihydro-1H-furo[3,4-e]pyrido[1,2-a]pyrazine-5,7(3H,10aH)-dione], for which, under setting [1], the IC50 was 400 nM.
